{"source": "patent US11932850B2", "about": "“Cancer chemoprevention with STAT3 blockers” (Jill M. Siegfried, LLC, priority 2018, dated 2024)", "key": {"[1]": {"system": "201T cells", "assay": "MTS cell viability assay, 201T", "type": "cell-based, human", "experimental": "(§1) NSCLC cell lines (201T and H1975) were transfected with CS3D or CS3M (cyclic STAT3 mutant decoy) at concentrations ranging from 0 nM to 600 nM. Using MTS assays, cell viabilities were assessed 72 hours later. Three independent experiments were performed, using 24-well plates and 4 wells/concentration.\n(§2) To determine the concentration of CS3D required to inhibit cell viability, increasing concentrations of CS3D was transfected, and after 72 hours, MTS assays were used to assess cell viability. Data were normalized to cells treated with lipofectamine alone.\nFluorescently-labeled CS3M and CS3D (with iFluor) were also produced using enzymatic ligation as described above and used to assess uptake efficiency. Transfections of the cyclic oligonucleotides were performed using Lipofectamine 2000 (Life Technologies) in opti-MEM media (Life Technologies) as follows: Cells were plated at […] confluency, and exposed to transfection media containing the respective circularized oligonucleotides for 24 hours at 37° C. Post-transfection, cell recovery was initiated in media containing 10% heat-inactivated fetal bovine serum.\n(§3) Dose-response experiments assessing the relative number of metabolically active viable cells were performed by transfecting cells with increasing concentrations of CS3D or CS3M, followed by performance of MTS assays. After 72 hours, 5 mg/ml of MTS reagent was added in the plates and incubated 37° C. for 20 minutes. The plates were then read at 490 nm in a Synergy microplate reader (BioTek, Winooski, Vermont) using Gen5 2.05 software. Data obtained following treatment with C3SD or CS3M were normalized to treatment with lipofectamine alone. […] To assess induction of apoptosis in response to CS3D, H1975 and 201T cells were transfected with 100 nM of CS3M or CS3D. After twenty four hours of transfection, cells were resuspended in annexin V-binding buffer, incubated with 5 μL of propidium iodide (BD Biosciences) and subjected to flow cytometric analysis, using a BD FACS Canto II Flow Cytometer."}, "[2]": {"system": "NSCLC cell lines", "details": "each NSCLC cell line, regardless of EGFR or KRAS mutation status; one 4-hr transfection", "experimental": "as §1, §2\nas §3, with “After twenty four hours of transfection, cells were resuspended in annexin V-binding buffer, incubated with 5 μL of propidium iodide (BD Biosciences) and subjected to flow cytometric analysis, using a BD FACS Canto II Flow Cytometer.” left out"}, "[3]": {"system": "201T cells", "assay": "Soft agar colony forming assay, 201T", "type": "cell-based, human", "from_the_text": "(§4) 1 hr after treatment with EGF.\n(§5) Following the transfection protocol described above, cells transfected with either CS3D or CS3M were detached from the plate using Trypsin-EDTA (Life Technologies) and seeded at a density of 2×10^4 cells/well (in a 6-well plate) in soft agar to determine the ability of cells to grow in an anchorage-independent setting. Sea Plaque Agarose (Lonza—Rockland, Maine) was used to prepare 0.8% base agarose layer and a 0.48% upper agarose layer containing the transfected cells. 1 ml of appropriate growth media was added into each well and incubated at growth conditions of 37° C. with 5% CO2. Media was replaced every 3-4 days and colony formation was monitored. After 15-20 days, the media was aspirated, and wells were incubated with crystal violet in 10% formalin for 1 h. Using a dissecting scope, colonies were photographed in a 6-well plate (with 4 quadrants/well) using ImageJ software analysis to automatically count colonies, using 35 pixels as a cut-off."}, "[4]": {"system": "H1975 cells", "assay": "Soft agar colony forming assay, H1975", "type": "cell-based, human", "from_the_text": "as §4, §5"}, "[5]": {"system": "c-Myc mRNA in H1975 cells", "assay": "RT-qPCR of c-Myc mRNA after EGF, H1975", "type": "cell-based, human", "details": "single transfection, EGF 10 ng/ml 1.5 hr"}, "[6]": {"system": "STAT1 target genes (IKBKE, IFT2, IFT1, IRF7) and NFκB target genes", "details": "CS3D compared to CS3M treated cells", "experimental": "(§6) c-Myc is a STAT3 target gene that is known to be activated by EGF treatment. To investigate the effects of STAT3 blockade on c-Myc expression, cells were first treated with 10 ng/ml EGF for 1.5 hr (deemed the optimal time to observe increased c-Myc RNA), 24 hr after transfection of the cyclic oligonucleotides. RT-qPCR was used to assess differences in mRNA expression in STAT3 decoy-treated versus mutant decoy-treated cells (FIGS. 5A and 5B). […] Cells were treated 24 hours post-transfection with EGF (10 ng/ml) for 1.5 hr and mRNA was harvested from wild-type (A) and mutant EGFR T790M (B) NSCLC cell lines, and mRNA expression was assessed by RT-qPCR. Relative mRNA expression was normalized to GAPDH mRNA levels as an internal control. Statistical significance was determined as *P<0.05. […] Cells were treated 24 hours post-transfection with EGF (10 ng/ml) for 1.5 hr and mRNA was harvested from mutant EGFR T790M (B) NSCLC cell lines. […] Cells were is treated as in FIGS. 5A and 5B, and 3 hr after EGF treatment, lysates were collected from wild-type 201T (left) and mutant EGFR […] H1975 (right) NSCLC cell lines."}, "[7]": {"system": "c-Myc protein in 201T cells", "details": "3 hr after EGF, compared to CS3M or lipofectamine alone", "experimental": "as §6"}, "[8]": {"system": "c-Myc protein in H1975 cells", "details": "H1975, 3 hr after EGF", "experimental": "as §6"}, "[9]": {"molecular_target": "T1, pSTAT3-ubiquitin complexes in H1975 cells (Homo sapiens, UniProt P40763)", "T1 construct": "Post-transfection with either 100 nM CS3D or CS3M, H1975 were lysed in IP lysis buffer; endogenous in cells; host or cells: H1975", "T1 sequence (P40763 2-770 limits assumed, one chain of several)": "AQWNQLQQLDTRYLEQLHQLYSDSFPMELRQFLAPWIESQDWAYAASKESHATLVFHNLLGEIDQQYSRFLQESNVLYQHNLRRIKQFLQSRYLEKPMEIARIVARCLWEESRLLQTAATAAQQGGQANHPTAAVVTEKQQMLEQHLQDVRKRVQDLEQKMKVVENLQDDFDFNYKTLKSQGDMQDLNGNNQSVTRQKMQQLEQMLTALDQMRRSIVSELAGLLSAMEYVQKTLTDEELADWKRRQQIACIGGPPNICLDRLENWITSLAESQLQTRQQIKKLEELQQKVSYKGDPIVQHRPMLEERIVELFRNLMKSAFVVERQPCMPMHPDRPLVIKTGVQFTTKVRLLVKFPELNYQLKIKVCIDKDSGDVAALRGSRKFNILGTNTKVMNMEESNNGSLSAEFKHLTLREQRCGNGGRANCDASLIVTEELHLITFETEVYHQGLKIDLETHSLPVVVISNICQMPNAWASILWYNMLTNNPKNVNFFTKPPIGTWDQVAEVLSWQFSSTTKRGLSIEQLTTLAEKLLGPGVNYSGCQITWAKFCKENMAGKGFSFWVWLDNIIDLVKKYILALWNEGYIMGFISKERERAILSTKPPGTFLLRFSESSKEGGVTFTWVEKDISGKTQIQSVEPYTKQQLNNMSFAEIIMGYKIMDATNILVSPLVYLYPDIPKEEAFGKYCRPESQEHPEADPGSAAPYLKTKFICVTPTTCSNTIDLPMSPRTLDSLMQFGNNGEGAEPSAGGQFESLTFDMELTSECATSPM", "assay": "p-STAT3 immunoprecipitation and ubiquitin immunoblot", "type": "cell-based", "details": "H1975, 100 nM, 24 hr post-transfection"}, "[10]": {"system": "c-Myc in 201T-derived tumors", "assay": "c-Myc expression in 201T xenograft tumors (Western blot, RT-qPCR)", "type": "in vivo, nude mice"}, "[11]": {"molecular_target": "pSTAT3 and total STAT3 in H1975 cells (Homo sapiens, UniProt P40763)", "sequence (P40763 2-770 limits assumed)": "as the sequence (P40763 2-770 limits assumed, one chain of several) above"}, "[12]": {"details": "H1975, IL-6 50 ng/mL 1 hr, compared to CS3M or lipofectamine alone"}}, "note": "Like-named read-outs stand apart in the source and are kept apart here."}
{"substance": "CS3D (DNA GATTTACGGGAAATGCSCATTTCCC; cyclic decoy with two hexaethylene glycol linkers, further chemistry not given here)", "values": [{"measurement": "inhibition in proliferation", "setting": "[1]; 0.3 μM transfection, 201T, relative to CS3M", "value": 50, "unit": "%"}, {"measurement": "IC50", "setting": "[1]; 201T (WT EGFR), MTS 72 hours, read-out: IC50", "value": "~300", "unit": "nM"}, {"measurement": "IC50", "setting": "[1]; 201T, EGFR WT, KRAS WT, MTS at 72 hours after transfection, read-out: CS3D IC50", "value": 300, "unit": "nM"}, {"measurement": "IC50", "setting": "[2]", "value": "~300", "unit": "nM"}, {"measurement": "disruption of anchorage-independent growth", "setting": "[3]; 300 nM single transfection, at 20 days, 201T, compared to CS3M", "value": 50, "unit": "%"}, {"measurement": "reduction of colony formation in soft agar", "setting": "[3]; one transfection, 201T (FIG. 4A)", "value": 55, "unit": "%"}, {"measurement": "disruption of anchorage-independent growth", "setting": "[4]; 300 nM single transfection, at 15 days, H1975, compared to CS3M", "value": 70, "unit": "%"}, {"measurement": "reduction of colony formation in soft agar", "setting": "[4]; one transfection, H1975 (FIG. 4A)", "value": 65, "unit": "%"}, {"measurement": "inhibition in mRNA level of c-Myc", "setting": "[5]", "value": "25-30%"}, {"measurement": "mRNA expression of STAT1 and NFκB target genes", "setting": "[6]", "value": "no decrease in mRNA expression level"}, {"measurement": "reduction in c-Myc protein expression", "setting": "[7]", "value": 31, "unit": "%"}, {"measurement": "reduction in c-Myc protein expression", "setting": "[8]", "value": 40, "unit": "%"}, {"measurement": "ratio of pSTAT3-ubiquitin complex to STAT3 (densitometry)", "setting": "[9]", "value": 0.95}, {"measurement": "mean decrease of c-Myc protein", "setting": "[10]; 201T xenografts, CS3D vs CS3M", "value": 70, "unit": "%"}, {"measurement": "reduction of c-Myc gene expression (mRNA) relative to GAPDH", "setting": "[10]; tumor lysates of 201T and H1975 xenografts (FIG. 7E), compared to CS3M", "value": "60-70%"}, {"measurement": "reduction in nuclear pSTAT3", "setting": "[11]; [12]", "value": 35, "unit": "%"}, {"measurement": "reduction in nuclear total STAT3", "setting": "[11]; [12]", "value": 35, "unit": "%"}, {"measurement": "effect on cytoplasmic pool of total STAT3", "setting": "[11]; H1975, IL-6 stimulated", "value": "little effect"}]}
